Results: patent US20260364181A1, “AKR1C3 Targeted Heterobifunctional Small Molecule Proteolysis Targeting Chimeras” (BOARD OF REGENTS OF THE UNIVERSITY OF NEBRASKA, priority 2022, published 2026)

Assays:
Assay type in all cases: cell-based
[1] = target: T1, AKR1C3 (Homo sapiens, UniProt P42330); test: AKR1C3 protein degradation in 22Rv1 prostate cancer cells (Western blot); design: 22Rv1 prostate cancer cells that express high levels of AKR1C3; host or cells: 22Rv1; conditions: read-out: AKR1C3 DC50 (half-maximal degradation concentration); 72 hours
T1 sequence (P42330 1-323): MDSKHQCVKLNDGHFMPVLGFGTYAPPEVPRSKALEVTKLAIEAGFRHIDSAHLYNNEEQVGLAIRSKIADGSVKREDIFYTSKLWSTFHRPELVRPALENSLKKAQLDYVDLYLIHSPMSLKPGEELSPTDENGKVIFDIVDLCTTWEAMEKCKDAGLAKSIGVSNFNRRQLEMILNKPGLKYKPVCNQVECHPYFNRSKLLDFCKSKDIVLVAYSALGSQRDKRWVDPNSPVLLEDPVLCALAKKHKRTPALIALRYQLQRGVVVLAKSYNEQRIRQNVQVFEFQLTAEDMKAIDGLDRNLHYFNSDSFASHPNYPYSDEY

[2] = tested on: AKR1C1/C2; test: AKR1C1/C2 protein degradation in 22Rv1 prostate cancer cells (Western blot)
Method: (§1) Protein Expression via Western Blot. 22Rv1 cells were seeded in a 6-well plate and incubated overnight. Next day, the cells were treated with varying concentrations of 6 (1 and 10 μM) and 5 (0.5, 1, 10, 50, 100, 250, and 500 nM; 1, 10, and 50 μM) for 24 hours and 5 (1 and 10 nM) at different time points (0, 2, 4, 6, 12, 16, 24, 48, and 72 h). Whole cell lysates were extracted in RIPA lysis buffer containing protease inhibitor and EDTA (Fisher Scientific, PI78440). Protein concentrations in each sample was estimated following BCA assay (Pierce™ BCA protein assay kit, Fisher Scientific, PI23227) as per the manufacturer's protocol. Proteins were standardized using RIPA lysis buffer with Laemelli SDS sample buffer (Thermo Scientific, AAJ61337AC) and heated at 1000C for 15 minutes. The proteins were resolved on a 4-12% premade gel (Invitrogen, NW04120BOX) at 60-90 V in 20× Bolt™ MES SDS running buffer (Fisher Scientific, B000202) and transferred onto a nitrocellulose membrane (Invitrogen, IB23001) using iBlot 2. The membranes were blocked with 2.5% non-fat dry milk (Bio-Rad, 1706404) for 1 h, and the membrane was incubated overnight on a rocking platform at 4 °C with the desired primary antibodies against AKR1C3 (mouse mAb, 1:200, Sigma, A6229), AKR1C1/C2 (rabbit mAb, 1:500, Abcam, ab179448), ARv7 (rabbit mAb, 1:500, Abcam, ab198394) and actin (mouse mAb, 1:1,000, ThermoFisher, MA5-11869). The membranes were washed three times, 10 minutes each, with 1×Tris-buffered saline (TBST, Bio-Rad, 1706435) in 0.1% Tween 20, on a rocking platform wherein they were incubated with rabbit anti-mouse IgG (ThermoFisher, 31450) or goat anti-rabbit IgG (Jackson ImmunoResearch, 111-035-003) secondary antibody (1:1,000) horseradish peroxidase conjugate for 1 hour. […] Bands were quantified by densitometry using ImageJ software and fold change in AKR1C3, AKR1C1/C2, and ARv7 protein expression was determined based on actin controls. […]

[3] = tested on: 22Rv1 prostate cancer cells; test: 22Rv1 cell viability (MTS assay); conditions: 72 h
Method: Cell culture and reagents. 22Rv1 cells were purchased from the American Type Culture Collection (ATCC in 2016) and cultured in RPMI 1640 supplemented with 10% Fetal Bovine Serum (FBS, Fisher Scientific, MT35011CV) and Penicillin-Streptomycin Solution (1%, Fisher Scientific, MT30001Cl) at 37 °C in a humidified incubator with 5% carbon dioxide atmosphere. Stock solutions of E3 ligase ligand, lenalidomide 6 (10 mM), PROTAC 5 (25 mM), and AKR1C3 inhibitor 3 (100 mM) were prepared in DMSO.
Cell viability assay. Cells were seeded at a density of 10,000 cells/well in a 96-well plate containing 100 μL growth media per well and were incubated at 37 °C in a humidified incubator with 5% carbon dioxide over ~18-24 hours. Cells were treated with 6, 5, and 3 serially diluted at the indicated concentrations limiting the final DMSO concentration to less than 0.1% and incubated at 37 °C for 72 hours. 10 μL of MTS reagent (CellTiter96®Aqueous One Solution Reagent, Promega, G3580) was added to each well and incubated at the above-mentioned conditions for 4 hours. Absorbance was recorded at OD 490 nm on a Synergy LX multi-mode reader and the viability of cells were plotted as percentage of DMSO control.

[4] = tested on: ARv7; test: ARv7 protein degradation in 22Rv1 prostate cancer cells (Western blot)
Method: as §1

O=C(O)/C=C/c1cc(C(=O)NCc2ccc(OCc3cn(CCOCCOCC(=O)Nc4cccc5c4CN(C4CCC(=O)NC4=O)C5=O)nn3)cc2)cc(-c2ccccc2)c1 (stereo not drawn) [Compound IA, (E)-3-(5-((4-((1-(2-(2-(2-((2-(2,6-dioxopiperidin-3-yl)-1-oxoisoindolin-4-yl)amino)-2-oxoethoxy)ethoxy)ethyl)-1H-1,2,3-triazol-4-yl)methoxy)benzyl)carbamoyl)-[1,1 ? biphenyl]-3-yl)acrylic acid]
DC50 [1]: 52 nM
degradation of AKR1C1/C2 compared with AKR1C3 ([2]; 10 nM, in words): to a lesser extent than AKR1C3
degradation of AKR1C1/C2 (in words) ([2]; 10 nM, time-dependent): trend of degradation of AKR1C1/C2 in a time-dependent manner
DC50 ([2]; 72 hours, read-out: AKR1C1/C2 DC50 (half-maximal degradation concentration)): 49 nM
22Rv1 cell viability activity in words [3]: equipotent
IC50 ([3]; Homo sapiens, 22Rv1, MTS, mean±standard deviation of two independent experiments): 49300 ± 1400 nM
ARv7 expression after proteasome inhibitor pretreatment ([4]; 10 nM, 2 hour pretreatment with MG132 (3 μM), in words): not affected
ARv7 expression ([4]; 10 nM, 72 hours, in words): almost complete amelioration of ARv7 expression
DC50 ([4]; 72 hours, read-out: ARv7 DC50 (half-maximal degradation concentration)): 70 nM
